Experiments:
[1] = system: blood coagulation factor; assay: Activated Partial Thromboplastin Time (aPTT); type: biochemical
Procedure: (§1) An antithrombotic activity was measured for the three types of jellies prepared in Example 3, and the results are shown in Table 5. At this time, the blood coagulation inhibitory activity evaluation method was in accordance with the previously reported method (Sohn et al., 2004. Kor. J. Pharmacogn 35. 52-61; Kwon et al., 2004. J. Life Science, 14. 509-513; Ryu et al. 2010. J. Life Science, 20. 922-928). Experiments were conducted to measure thrombin time, prothrombin time, and activated Partial Thromboplastin Time (aPTT). For plasma, commercially available control plasma (MD Pacific Technology Co., Ltd, Huayuan Industrial Area, China) was used. The thrombin time, prothrombin time, and aPTT measurements were performed as follows.
Activated Partial Thromboplastin Time (aPTT)
At a temperature of 37° C., 100 μl of plasma and 10 μl of sample extracts of various concentrations were added to the tube of Amelung coagulometer KC-1A (Japan) and heated for 3 minutes. Thereafter, 50 μl of aPTT reagent (Sigma, ALEXIN™) was added thereto. […] Afterward, the time until the plasma coagulated was measured. […] The results of aPTT were expressed as an average value of three repeated experiments. A blood coagulation factor inhibitory activity was expressed as the aPTT upon sample addition divided by the aPTT upon the solvent control addition.

[2] = system: prothrombin; assay: Prothrombin time (blood coagulation inhibitory activity); type: biochemical
Procedure: as §1
At a temperature of 37° C., 70 μl of standard plasma (MD Pacific Co., China) and 10 μl of sample solutions of various concentrations were added into the tube of Amelung coagulometer KC-1A (Japan) and heated for 3 minutes. Thereafter, 130 μl of PT reagent was added thereto. Afterward, the time until the plasma coagulated was expressed as an average value of the experiments repeated three times. Aspirin (Sigma Co., USA) was used as a control. […] A prothrombin inhibitory activity was expressed as the coagulation time upon sample addition divided by the coagulation time upon the solvent control addition.

[3] = molecular target: T1, thrombin (Homo sapiens, UniProt P00734); assay: Thrombin time (blood coagulation inhibitory activity); type: biochemical
T1 construct: 50 μl of 0.5 U thrombin (Sigma Co., USA); purchased Sigma Co., USA
Procedure: as §1
At a temperature of 37° C., 50 μl of 0.5 U thrombin (Sigma Co., USA), 50 μl of 20 mM CaCl2), and 10 μl of sample extracts of various concentrations were mixed in a tube of Amelung coagulometer KC-1A (Japan), and reacted for 2 minutes. Thereafter, 100 μl of plasma was added thereto. Afterward, the time until the plasma coagulated was measured. Aspirin (Sigma Co., USA) was used as a control. […] The thrombin inhibition effect was expressed as an average value of experiments repeated more than three times. A thrombin inhibitory activity was expressed as the coagulation time upon sample addition divided by the coagulation time upon the solvent control addition.

[4] = Nitrite scavenging ability (Griess reagent); details: 0.2 mg/ml; nitrite solution 1 mM, pH 1.2, 37° C., 1 hour
Procedure: To measure the nitrite scavenging ability, a sample solution was added to the nitrite solution (1 mM), and 0.1 N HCl was further added thereto to adjust the pH of the mixture to 1.2. Thereafter, the mixture was reacted at a temperature of 37° C. for 1 hour, and then Griess reagent (Sigma Co., USA) was added, and the resulting solution was mixed. After leaving the resulting solution at room temperature for 15 minutes, the amount of remaining nitrite was measured by measuring absorbance at a wavelength of 520 nm. The nitrite scavenging ability (%) was calculated using the following equation.

[5] = compared to the untreated group, aspirin at 1.5 mg/ml

Blood coagulation inhibitory activity, Thrombin time ([3]; coagulation time upon sample addition / upon DMSO addition, control plasma, 37° C., aspirin 1.5 mg/ml, concentration not given for jellies) | extension of thrombin time [3, 5] | SMILES | Blood coagulation inhibitory activity, aPTT ([1]; aPTT upon sample addition / upon DMSO addition, plasma, 37° C., aspirin 1.5 mg/ml, concentration not given for jellies) | extension of aPTT [1, 5] | Blood coagulation inhibitory activity, Prothrombin time ([2]; coagulation time upon sample addition / upon DMSO addition, standard plasma, 37° C., aspirin 1.5 mg/ml, concentration not given for jellies) | extension of prothrombin time [2, 5] | Nitrite scavenging ability [4]
1.26 ± 0.00 | 1.26 times | CC(=O)Oc1ccccc1C(=O)O [Aspirin] | 1.33 ± 0.02 | 1.33 times | 1.30 ± 0.02 | 1.30 times | 
 |  | O=C1O[C@H]([C@@H](O)CO)C(O)=C1O [Vitamin C] |  |  |  |  | 62.5 ± 0.1%

— patent US20250186532A1, “SHINE MUSCAT JELLY HAVING HIGH SENSORY APPEAL AND EXCELLENT ANTIOXIDANT AND ANTITHROMBOTIC ACTIVITIES, AND METHOD OF PREPARING SAME” (Andong National University Industry-Academic Cooperation …, priority 2023, published 2025)
